This is an account of results in PMC8074792, “An ω-3, but Not an ω-6 Polyunsaturated Fatty Acid Decreases Membrane Dipole Potential and Stimulates Endo-Lysosomal Escape of Penetratin” (Frontiers in Cell and Developmental Biology, 2021).

Common to all, as to assay type: cell-based, human
The subject of assay [1] is JY cells. As to the kind of experiment: Membrane fluidity, TMA-DPH fluorescence anisotropy. The note with it: 200 μM sterol 1 h or 50 μM fatty acid 48 h, 37°C, n = 6, vs control. On the procedure: (§1) 4′-(trimethylammonio)-diphenylhexatriene (TMA-DPH) was purchased from Sigma-Aldrich, dissolved in tetrahydrofuran and used for determination of membrane fluidity as described previously ([Batta et al., 2018]). […] Fluorescence intensities were measured without washing using a Fluorolog-3 spectrofluorometer (Horiba Jobin Yvon, Edison, NJ, United States) with the temperature of the cuvette holder adjusted to 37°C by a circulating water bath. The fluorescence anisotropy (r) of TMA-DPH was determined in the L-format after excitation at 352 nm and measurement of fluorescence intensities at 430 nm according to the formula: […]

The subject of assay [2] is THP-1 cells. As to the kind of experiment: Membrane fluidity, TMA-DPH fluorescence anisotropy. The note with it: 200 μM sterol 1 h or 50 μM fatty acid 48 h, 37°C, n = 6, vs control. On the procedure:
as §1

Assay [3] has as its system JY cells. As to the kind of experiment: Penetratin uptake and endo-lysosomal escape, time-correlated flow cytometry. The note with it: 50 μM fatty acid 48 h, 5 μM AFDye532- and 5 μM NF-penetratin, 37°C, compared at 900 s, n = 5. The text has this: (§2) Penetratin ([…]-amide, molecular weight 2245.75 g/mol) was synthesized manually on TentaGel R RAM (Rapp Polymere, Tübingen, Germany), a low crosslinked polystyrene PEG copolymer resin by the solid-phase method of Merrifield with standard Fmoc chemistry, as described in detail in our recent study ([Batta et al., 2020]). After coupling the last arginine, one half of the penetratin was reacted with AFDye532 N-hydroxysuccinimide ester (molecular weight 723.77 g/mol, Fluoroprobes, Scottsdale, AZ, United States), while the other half with 5(6)-carboxynaphthofluorescein N-succinimidyl ester (molecular weight 573.51 g/mol, Darmstadt, Germany). Completion of the coupling was assessed by Kaiser test, which was followed by deprotection and release from the resin. After filtration and precipitation with cold diethyl ether, the crude products were purified by preparative reversed-phase HPLC (JASCO, Victoria, BC, Canada) on a C18 column and lyophilized. The purity of the products (>95%) was assessed by reversed-phase HPLC (JASCO) equipped with an analytical C18 column. […] These values well correlated with the predicted masses of the labeled peptides (2983.59 and 2833.33, respectively).
(§3) Total cellular penetratin uptake and endo-lysosomal escape was determined as described previously ([Batta et al., 2020]). Briefly, control THP-1 or JY cells and those treated with 50 μM ALA, GLA or SA for 48 h at 37°C were incubated in the continuous presence of 5 μM AFDye532-penetratin, 5 μM NF-penetratin and 0.25 μg/ml DAPI at 37°C in the thermostated sample holder of a FACS Aria III flow cytometer. The fluorescence intensity of DAPI was measured using an excitation at 405 nm and an emission filter 450/20 nm. AFDye532 and NF were excited at 488 and 561 nm, respectively, and their fluorescence was determined using emission filters 530/30 and 670/14 nm, respectively. Measurements started immediately after addition of DAPI and penetratin and continued for 20 min at 37°C. Experimental data were analyzed first in FCS Express. Time-correlated fluorescence intensity values of DAPI-negative living cells were exported after spectral compensation and the moving averages of samples were calculated with a window size of 10 s. […] During analysis, fluorescence intensity values were first normalized to the average intensity in the first time window, which was followed by calculation of the fluorescence ratio from the normalized values.

Assay [4] deals with THP-1 cells. The assay is described as above. The note with it: 50 μM fatty acid 48 h, 5 μM AFDye532- and 5 μM NF-penetratin, 37°C, compared at 900 s, n = 5.
Description: as §2, §3

As for `CC/C=C\C/C=C\C/C=C\CCCCCCCC(=O)O` [ALA, α-linolenic acid], the “TMA-DPH fluorescence anisotropy (inversely correlates with membrane fluidity)” value with JY cells [1] and with THP-1 cells [2] was “significantly decreased” in each case. Further, the “ratio of NF and AFDye532 intensities (endo-lysosomal escape of penetratin) vs controls” value in the assay on JY cells [3] and in the assay with THP-1 cells [4] was “significantly increased” in each case.

As for `CCCCC/C=C\C/C=C\C/C=C\CCCCC(=O)O` [GLA, γ-linolenic acid], the “TMA-DPH fluorescence anisotropy (inversely correlates with membrane fluidity)” value with JY cells [1] and with THP-1 cells [2] was “did not reach statistical significance” each time. In addition, the “ratio of NF and AFDye532 intensities (endo-lysosomal escape of penetratin) vs controls” value in the assay with JY cells [3] and in the assay with THP-1 cells [4] was “no significant changes” in each case.
